In article PMC8866981 (Journal of Experimental Pharmacology, 2021):

Tests used:
HIV-1IIIB = assay type: cell-based, Human immunodeficiency virus type 1; details: HIV-1IIIB infected MT-4 cells, 5 days, mean ± S.E.M (n=3)
[1] = test system: Human T-lymphocytic MT-4 cells; experiment: Cytotoxicity test, MTT colorimetric assay; assay type: cell-based; details: 5 days, percentage inhibition of cell growth, mean ± S.E.M (n=3)

Structure (SMILES) | EmaxAV (maximum antiviral effect %, CPE inhibition %) (HIV-1IIIB) [%] | EmaxC (maximum cytotoxic effect %) [1] [%]
Cc1cn([C@H]2C[C@H](N=[N+]=[N-])[C@@H](CO)O2)c(=O)[nH]c1=O [AZT, zidovudine] | 83 | –
Cc1ccnc2c1NC(=O)c1cccnc1N2C1CC1 [NVP, nevirapine] | – | > 35
